Biological target: canine TRPM8 (Canis lupus familiaris, UniProt Q1A7N1)
Test: In Vitro Canine TRPM8 Functional Assay (Ca2+ fluorescence, icilin activation)
Assay type: cell-based
Settings: for inhibition at 0.2 µM: compound at 0.2 μM, canine TRPM8, icilin activation, read-out: % Inh @ 0.2; for IC50: HEK293 cells stably expressing canine TRPM8, icilin activation, eight-point dose-response, read-out: IC50
Procedure, shortened: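 HEK293 cells stably expressing canine TRPM8 were loaded with Calcium 3 dye (35 min at 37 °C, then 25 min at room temperature). Compound was added and Ca2+ fluorescence was read for 5 min before icilin at a concentration giving about 80% maximal response. EC50/IC50 came from eight-point dose-response curves, quadruplicate wells.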

Chain of canine TRPM8 (Q1A7N1 1-1104): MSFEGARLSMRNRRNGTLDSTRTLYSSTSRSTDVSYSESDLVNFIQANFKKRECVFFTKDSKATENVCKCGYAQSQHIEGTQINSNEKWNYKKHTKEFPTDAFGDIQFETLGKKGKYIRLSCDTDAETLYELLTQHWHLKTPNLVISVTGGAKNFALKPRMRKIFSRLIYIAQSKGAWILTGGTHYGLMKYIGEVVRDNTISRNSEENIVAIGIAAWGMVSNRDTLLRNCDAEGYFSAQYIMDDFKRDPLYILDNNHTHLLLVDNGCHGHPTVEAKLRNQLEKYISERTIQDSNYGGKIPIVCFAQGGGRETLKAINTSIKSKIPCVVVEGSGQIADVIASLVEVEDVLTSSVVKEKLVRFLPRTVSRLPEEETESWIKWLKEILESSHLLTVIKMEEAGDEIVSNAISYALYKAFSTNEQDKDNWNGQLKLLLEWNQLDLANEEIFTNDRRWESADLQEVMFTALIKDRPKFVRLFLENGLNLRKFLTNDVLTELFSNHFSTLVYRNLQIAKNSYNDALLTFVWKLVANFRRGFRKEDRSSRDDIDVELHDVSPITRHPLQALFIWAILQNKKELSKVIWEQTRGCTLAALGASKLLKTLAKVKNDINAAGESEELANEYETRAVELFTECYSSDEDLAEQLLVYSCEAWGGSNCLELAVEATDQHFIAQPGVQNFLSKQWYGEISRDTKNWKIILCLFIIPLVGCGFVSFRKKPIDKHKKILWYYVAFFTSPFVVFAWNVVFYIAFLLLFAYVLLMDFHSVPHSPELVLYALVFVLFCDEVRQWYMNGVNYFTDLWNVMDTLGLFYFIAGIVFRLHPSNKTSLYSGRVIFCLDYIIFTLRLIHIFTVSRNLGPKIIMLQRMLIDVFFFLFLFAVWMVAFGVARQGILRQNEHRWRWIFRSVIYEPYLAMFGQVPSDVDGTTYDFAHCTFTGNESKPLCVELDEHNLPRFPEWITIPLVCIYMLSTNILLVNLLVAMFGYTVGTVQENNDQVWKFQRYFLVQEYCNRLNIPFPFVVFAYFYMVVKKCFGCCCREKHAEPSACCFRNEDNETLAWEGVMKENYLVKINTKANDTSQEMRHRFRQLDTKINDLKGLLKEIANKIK

Row | inhibition at 0.2 µM | IC50 | Structure (SMILES)
1 | 62% |  | CNC1=C(N(Cc2ccc(F)c(C(F)(F)F)c2)S(=O)(=O)c2ccccc2)S(=O)(=O)c2ccccc21 [Compound 648, N-(4-Fluoro-3-trifluoromethyl-benzyl)-N-(3-methylamino-1,1-dioxo-1H-1λ^6-benzo[b]thiophen-2-yl)-benzenesulfonamide]
2 | 26% |  | CN1CCN(C2=C(N(Cc3ccc(F)c(C(F)(F)F)c3)S(=O)(=O)c3ccccc3)S(=O)(=O)c3ccccc32)CC1 [Compound 649, N-(4-Fluoro-3-trifluoromethyl-benzyl)-N-[3-(4-methyl-piperazin-1-yl)-1,1-dioxo-benzo[b]thiophen-2-yl]-benzenesulfonamide]
3 | 102% | 0.004 µM | Nc1ccc(S(=O)(=O)N(Cc2ccc(F)c(C(F)(F)F)c2)c2sc3ccccc3c2Br)cc1 [Compound 650, 4-Amino-N-(3-bromo-benzo[b]thiophen-2-yl)-N-(4-fluoro-3-trifluoromethyl-benzyl)-benzenesulfonamide]
4 | 103% | 0.006 µM | Nc1ccc(S(=O)(=O)N(Cc2ccc(F)c(C(F)(F)F)c2)c2sc3ccccc3c2Br)cc1Br [Compound 651, 4-Amino-3-bromo-N-(3-bromo-benzo[b]thiophen-2-yl)-N-(4-fluoro-3-trifluoromethyl-benzyl)-benzenesulfonamide]
5 | 102% | 0.085 µM | CS(=O)(=O)Nc1ccc(S(=O)(=O)N(Cc2ccc(F)c(C(F)(F)F)c2)c2cc3ccccc3s2)cc1 [Compound 652, N-(Benzo[b]thiophen-2-yl)-N-(4-fluoro-3-trifluoromethyl-benzyl)-4-methanesulfonylamino-benzenesulfonamide]
6 | 102% | 0.013 µM | Nc1ccc(S(=O)(=O)N(Cc2ccc(F)c(C(F)(F)F)c2)c2cc3ccccc3s2)cc1 [Compound 653, 4-Amino-N-(benzo[b]thiophen-2-yl)-N-(4-fluoro-3-trifluoromethyl-benzyl)-benzenesulfonamide]
7 | 56% |  | O=S(=O)(c1ccc(Br)cc1)N(CCC1CC1)c1cc2ccccc2s1 [Compound 654, N-(Benzo[b]thiophen-2-yl)-N-(2-cyclopropyl-ethyl)-4-bromo-benzenesulfonamide]
8 | 55% |  | O=S(=O)(c1ccc(Br)cc1)N(CCCCC(F)(F)F)c1cc2ccccc2s1 [Compound 655, N-(Benzo[b]thiophen-2-yl)-4-bromo-N-(5,5,5-trifluoro-pentyl)-benzenesulfonamide]
9 | 98% | 0.0537 µM | CC(C)(O)c1c(N(CCCCC(F)(F)F)S(=O)(=O)c2ccc(Br)cc2)sc2ccccc12 [Compound 656, 4-Bromo-N-(3-(1-hydroxy-1-methyl-ethyl)-benzo[b]thiophen-2-yl)-N-(5,5,5-trifluoro-pentyl)-benzenesulfonamide]
10 | 100% | 0.0141 µM | CS(=O)(=O)Nc1ccc(S(=O)(=O)N(Cc2ccc(F)c(C(F)(F)F)c2)c2sc3ccccc3c2Cl)cc1 [Compound 659, N-(3-Chloro-benzo[b]thiophen-2-yl)-N-(4-fluoro-3-trifluoromethyl-benzyl)-4-methanesulfonylamino-benzenesulfonamide]
11 | 100% | 0.0112 µM | CS(=O)(=O)Nc1ccc(S(=O)(=O)N(Cc2ccc(F)c(C(F)(F)F)c2)c2sc3ccccc3c2Br)cc1 [Compound 660, N-(3-Bromo-benzo[b]thiophen-2-yl)-N-(4-fluoro-3-trifluoromethyl-benzyl)-4-methanesulfonylamino-benzenesulfonamide]
12 | 100% | 0.0141 µM | CS(=O)(=O)Nc1ccc(S(=O)(=O)N(Cc2ccc(F)c(C(F)(F)F)c2)c2sc3ccccc3c2Br)cc1Br [Compound 661, 3-Bromo-N-(3-bromo-benzo[b]thiophen-2-yl)-N-(4-fluoro-3-trifluoromethyl-benzyl)-4-methanesulfonylamino-benzenesulfonamide]
13 | 50.1% |  | Cc1c(N(CCCCC(F)(F)F)S(=O)(=O)C(F)(F)F)sc2ccccc12 [Compound 662, C,C,C-Trifluoro-N-(3-methyl-benzo[b]thiophen-2-yl)-N-(5,5,5-trifluoro-pentyl)-methanesulfonamide]
14 | 17.1% |  | O=S(=O)(N(Cc1ccc(F)c(C(F)(F)F)c1)c1cc2ccccc2s1)C(F)(F)F [Compound 663, N-Benzo[b]thiophen-2-yl-N-(4-fluoro-3-trifluoromethyl-benzyl)-C,C,C-trifluoro-methanesulfonamide]
15 | 53.1% |  | Cc1c(N(Cc2ccc(F)c(C(F)(F)F)c2)S(=O)(=O)C(F)(F)F)sc2ccccc12 [Compound 664, C,C,C-Trifluoro-N-(4-fluoro-3-trifluoromethyl-benzyl)-N-(3-methyl-benzo[b]thiophen-2-yl)-methanesulfonamide]
16 | 27.9% |  | Cc1c(N(CCC2CC2)S(=O)(=O)C(F)(F)F)sc2ccccc12 [Compound 665, N-(2-Cyclopropyl-ethyl)-C,C,C-trifluoro-N-(3-methyl-benzo[b]thiophen-2-yl)-methanesulfonamide]

Row | inhibition at 0.2 µM | IC50 | Structure (SMILES)
17 | 103% | 0.0081 µM | Nc1ccc(S(=O)(=O)N(CCCCC(F)(F)F)c2sc3ccccc3c2Cl)cc1 [Compound 666, 4-Amino-N-(3-chloro-benzo[b]thiophen-2-yl)-N-(5,5,5-trifluoro-pentyl)-benzenesulfonamide]
18 | 103% | 0.0301 µM | Nc1ccc(S(=O)(=O)N(CCCCC(F)(F)F)c2sc3ccccc3c2Cl)cc1Cl [Compound 667, 4-Amino-3-chloro-N-(3-chloro-benzo[b]thiophen-2-yl)-N-(5,5,5-trifluoro-pentyl)-benzenesulfonamide]
19 | 103% | 0.005 µM | Nc1ccc(S(=O)(=O)N(CCCCC(F)(F)F)c2sc3ccccc3c2Br)cc1 [Compound 668, 4-Amino-N-(3-bromo-benzo[b]thiophen-2-yl)-N-(5,5,5-trifluoro-pentyl)-benzenesulfonamide]
20 | 96.4% | 0.0512 µM | Cc1c(N(Cc2ccc(F)c(C(F)(F)F)c2)S(=O)(=O)CC(F)(F)F)sc2ccccc12 [Compound 669, N-(4-Fluoro-3-trifluoromethyl-benzyl)-N-(3-methyl-benzo[b]thiophen-2-yl)-2,2,2-trifluoro-ethanesulfonamide]
21 | 99.1% | 0.039 µM | Cc1c(N(CCC2CC2)S(=O)(=O)CC(F)(F)F)sc2ccccc12 [Compound 670, N-(2-Cyclopropyl-ethyl)-N-(3-methyl-benzo[b]thiophen-2-yl)-2,2,2-trifluoro-ethanesulfonamide]
22 | 100% | 0.0345 µM | Cc1c(N(CCC(F)(F)F)S(=O)(=O)CC(F)(F)F)sc2ccccc12 [Compound 671, N-(3-Methyl-benzo[b]thiophen-2-yl)-N-(3,3,3-trifluoro-propyl)-2,2,2-trifluoro-ethanesulfonamide]
23 | 75.3% | 0.0749 µM | Cc1c(N(CCCC(F)(F)F)S(=O)(=O)CC(F)(F)F)sc2ccccc12 [Compound 672, N-(3-Methyl-benzo[b]thiophen-2-yl)-N-(4,4,4-trifluoro-butyl)-2,2,2-trifluoro-ethanesulfonamide]
24 | 94.4% |  | Cc1c(N(CCCCC(F)(F)F)S(=O)(=O)CC(F)(F)F)sc2ccccc12 [Compound 673, N-(3-Methyl-benzo[b]thiophen-2-yl)-N-(5,5,5-trifluoro-pentyl)-2,2,2-trifluoro-ethanesulfonamide]
25 | 85.4% | 0.0776 µM | COC(=O)c1ccc(S(=O)(=O)N(Cc2ccc(F)c(C(F)(F)F)c2)c2sc3ccccc3c2C2CC2)cc1 [Compound 674, N-(3-Cyclopropyl-benzo[b]thiophen-2-yl)-N-(4-fluoro-3-trifluoromethyl-benzyl)-4-carbomethoxy-benzenesulfonamide]
26 | 100% | 0.0024 µM | O=C(O)c1ccc(S(=O)(=O)N(Cc2ccc(F)c(C(F)(F)F)c2)c2sc3ccccc3c2C2CC2)cc1 [Compound 675, N-(3-Cyclopropyl-benzo[b]thiophen-2-yl)-N-(4-fluoro-3-trifluoromethyl-benzyl)-4-carboxy-benzenesulfonamide]
27 | 102% | 0.0259 µM | CS(=O)(=O)Nc1ccc(S(=O)(=O)N(CCC(F)(F)F)c2sc3ccccc3c2Cl)cc1 [Compound 676, N-(3-Chloro-benzo[b]thiophen-2-yl)-4-methanesulfonylamino-N-(3,3,3-trifluoro-propyl)-benzenesulfonamide]
28 | 101% | 0.0246 µM | CS(=O)(=O)Nc1ccc(S(=O)(=O)N(CCC(F)(F)F)c2sc3ccccc3c2Br)cc1 [Compound 677, N-(3-Bromo-benzo[b]thiophen-2-yl)-N-(3,3,3-trifluoro-propyl)-4-methanesulfonylamino-benzenesulfonamide]
29 | 61% |  | CS(=O)(=O)Nc1ccc(S(=O)(=O)N(CCCCC(F)(F)F)c2cc3ccccc3s2)cc1 [Compound 678, N-(Benzo[b]thiophen-2-yl)-4-methanesulfonylamino-N-(5,5,5-trifluoro-pentyl)-benzenesulfonamide]
30 | 100% | 0.0579 µM | CS(=O)(=O)Nc1ccc(S(=O)(=O)N(CCCCC(F)(F)F)c2sc3ccccc3c2Cl)cc1 [Compound 679, N-(3-Chloro-benzo[b]thiophen-2-yl)-4-methanesulfonylamino-N-(5,5,5-trifluoro-pentyl)-benzenesulfonamide]
31 | 96.2% | 0.0561 µM | CS(=O)(=O)Nc1ccc(S(=O)(=O)N(CCCCC(F)(F)F)c2sc3ccccc3c2Br)cc1 [Compound 680, N-(3-Bromo-benzo[b]thiophen-2-yl)-4-methanesulfonylamino-N-(5,5,5-trifluoro-pentyl)-benzenesulfonamide]

Reference: patent US9434711B2 (Janssen Pharmaceutica, NV, priority 2007, dated 2016)
